Test results as given in patent publication US20130274196A1, “METHOD FOR TREATMENT OF INFLAMMATORY DISEASE AND DISORDER” (HEALOR LTD., priority 2010, published 2013).
Where “and” joins values, the source holds several entries; their conditions need not be identical. Equal values may be shown once. Entries after “also recorded” stand apart in the source; their conditions may differ. The star is where a group is joined. Palmitoyl = CCCCCCCCCCCCCCCC(=O)*; Myristoyl = CCCCCCCCCCCCCC(=O)*

Key:
EAE mice = test: Experimental allergic encephalomyelitis (EAE), MOG35-55/CFA immunized mice; format: in vivo, C57BL/6J mice; settings: for Number of dead mice during 49 days: n=7; for Score on day 18 / Score on day 29 / Score on day 37: EAE scale 0-6; for EAE score on the initial day: scale 0-6
keratinocytes = test: Cytokine secretion in LPS, TNFα or IL-17 activated keratinocytes treated with peptide PKCα inhibitors (ELISA); format: cell-based, BALB/C mice; settings: for cytokine secretion in keratinocytes: stimulated by LPS, TNFα, or IL-17, medium collected after 48 hr
Procedure: To determine their effects, keratinocytes were derived from newborn BALB/C mice skin. The cells were incubated for 5 days in 24 wells plate. Cells were then incubated with PBS −/− as control or stimulated by LPS, TNFα, or IL-17. PKCα inhibitors were added as indicated. Medium containing secreted cytokines was collected after 48 hr and analyzed using ELISA. FIG. 50 is a tabular summary of cytokine secretion.

C57BL mice [1] = test: Incision wounds treated 7 days, severe inflammation incidence (Example 10); format: in vivo; settings: 1 μM daily for 7 days
Procedure: Wounds were performed on the back of C57BL mice by incision and were treated daily for 7 days with: (i) PBS, control; (ii) 1 μM of the PKCα inhibitor of SEQ ID NO: 6; (iii) 1 μM insulin (Humulin, Eli Lilly, USA); or (iv) a mixture of 1 μM PKCα inhibitor and 1 μM insulin.

C57BL mice [2] = test: Incision wounds treated 7 days, histological analysis (Example 9); format: in vivo
Procedure: Wounds were performed on the back of 8-10 week old C57BL mice by incision and were treated daily for 7 days with either vehicle (PBS) control or with 1 μM insulin (Humulin, Eli Lilly, USA) or a mixture of 1 μM insulin combined with 1 μM of the PKCα inhibitor of SEQ ID NO: 6. Seven days after wounding all mice were sacrificed and treated wounds were histologically analyzed for proliferative capacity of the epidermis (proliferating cell nuclear antigen-PCNA), angiogenesis, inflammation, epidermal cells and the remodeling processes at the wound gap.

[3] = system: STZ-induced diabetic C57BL/6J mice; test: Wound healing in STZ-induced diabetic mice; format: in vivo
Procedure: Full thickness skin incisions (20 mm) were performed on the upper back of anesthetized streptozocin (STZ)-injected (175 mg/kg body weight) diabetic, citrate buffer injected (6 mice/group) non-diabetic, and non-injected (6 mice/group), C57BL/6J mice. Periodical blood glucose monitoring was performed by measuring glucose levels from tail vein after STZ injection. […] Following incision, STZ-induced diabetic wounds were treated daily by application of PBS (7/6 mice/group), insulin (0.1 units/ml) (6 mice/group), the PKCa inhibitor of SEQ ID NO:6 (1 μg/ml) (7/5 mice/group) or a formulation (herein designated HO/03/03) containing insulin and the N-myristoylated PKCα inhibitor of SEQ ID NO: 6 (7/6 mice/group) directly to the surgical dressing. Biopsies were collected 9 days post-wounding. Wounds were excised from euthanized animals for evaluation of wound-healing parameters by histology and immunohistochemistry.
Wounds were assessed for epidermal closure by Keratin 14 staining. Wounds were considered closed when complete epidermal staining was observed across the wound gap. Dermal contraction was considered when both dermal edges were visible in a fixed field ×100 magnification utilizing H&E staining. Epidermal differentiation was assessed by Keratin 1 staining.
The organization of hypodermis was assessed by the presence (or absence) of hypodermis at both wound edges. Granulation tissue formation was assessed by the presence of fibroblasts and collagen fibers in the wound bed. The wound was considered positive for granulation tissue formation when a continuous layer of granulation tissue was present in the wound gap. In addition, we have defined 3 specific histological parameters characterizing severe inflammation of diabetic wounds: (i) abscess formation at the wounded area, (ii) excessive leukocytosis (>100 cells in a fixed field (×200)) and (iii) high white blood cells (WBC)/red blood cells (RBC) ratio within the blood vessels shown in a fixed field (×200). When at least 2 of these parameters are present at the wound gap, the wound is considered severely inflamed.

[4] = individual wounds, 1 μM daily for 7 days, listed as Insulin only
[5] = 9-days post wounding, percent of wounds in group, insulin 0.1 units, HO/02 1 ug/ml
[6] = 9-days post wounding, percent of wounds in group, insulin 0.1 units, SEQ ID NO: 6 1 ug/ml

CRAMP [reference compound]
The initial day (of illness signs) (EAE mice; 0.2 mg/kg): 10 days | Number of dead mice during 49 days (EAE mice; 0.2 mg/kg i.p. three times a week): 2 | Score on day 18 (EAE mice; 0.2 mg/kg): 3.214 | Score on day 29 (EAE mice; 0.2 mg/kg): 2.000 | Score on day 37 (EAE mice; 0.2 mg/kg): 2.571 | EAE score on the initial day (EAE mice; 0.2 mg/kg): 0.571 | The initial day (of illness signs) (EAE mice; 2 mg/kg): 11 days | Number of dead mice during 49 days (EAE mice; 2 mg/kg i.p. three times a week): 2 | Score on day 18 (EAE mice; 2 mg/kg): 2.643 | Score on day 29 (EAE mice; 2 mg/kg): 2.643 | Score on day 37 (EAE mice; 2 mg/kg): 2.143 | EAE score on the initial day (EAE mice; 2 mg/kg): 0.143

H-Phe-Ala-Arg-Lys-Gly-Ala-Leu-Arg-Gln-OH (H-FARKGALRQ-OH) [AWOT-1]
cytokine secretion in keratinocytes (keratinocytes): effective in decreasing cytokine secretion

H-Phe-Ala-Arg-Lys-Gly-Ala-Leu-Arg-Gln-OH-acetate salt (H-FARKGALRQ-OH; also: acetate salt) [PDY-1]
cytokine secretion from IL-17A activated keratinocytes (keratinocytes): decrease cytokine secretion | cytokine secretion from LPS and TNFα activated keratinocytes (keratinocytes): decrease cytokine secretion

H-Thr-Leu-Asn-Pro-Gln-Trp-Glu-Ser-OH (H-TLNPQWES-OH) [AIP-1]
cytokine secretion in keratinocytes (keratinocytes): effective in decreasing cytokine secretion

Insulin: insulin (Humulin, Eli Lilly, USA)
anti-inflammatory effect on wounds (C57BL mice [1]): no anti-inflammatory effect | Incidence of severe inflammation in wound (%) (C57BL mice [1]; PBS control 60): 56% | adverse side effects at the wound (C57BL mice [2]; 1 μM daily for 7 days): increased inflammation, hyperplasia of epidermal cells, delayed differentiation of the spinous layer of epidermal cells and increased scarring | incidence of abnormal angiogenesis in the wound area (C57BL mice [2]; 1 μM daily for 7 days, PBS control 25%): 60% | Proliferative capacity of the epidermis (layers of basal cells, PCNA), average (C57BL mice [2]; group average, N = 5, 1 μM daily for 7 days): average 6.4 | Angiogenesis (C57BL mice [2]; [4]): high abnormal; also recorded: normal | Proliferative capacity of the epidermis (layers of basal cells, PCNA) (C57BL mice [2]; [4]): 8 (2×) and 6 and 5 (2×) | Dermal closure (H&E) [3, 5]: 0% | Epidermal closure (K14) [3, 5]: 17% | Epidermal differentiation (Kl) [3, 5]: 0% | Granulation tissue [3, 6]: 40% | Hypodermis [3, 6]: 10% | Severe inflammation [3, 6]: 100% | overall healing effect in diabetic wounds ([3]; 9 days post-wounding): only partial healing effects

Myristoyl-Phe-Ala-Arg-Lys-Gly-Ala-Leu-OH (Myristoyl-FARKGAL-OH; SMILES CCCCCCCCCCCCCC(=O)N[C@@H](Cc1ccccc1)C(=O)N[C@@H](C)C(=O)N[C@@H](CCCNC(=N)N)C(=O)N[C@@H](CCCCN)C(=O)NCC(=O)N[C@@H](C)C(=O)N[C@@H](CC(C)C)C(=O)O) [MPDY-1 sh]
cytokine secretion from IL-17A activated keratinocytes (keratinocytes): decrease cytokine secretion | cytokine secretion from LPS and TNFα activated keratinocytes (keratinocytes): decrease cytokine secretion

Myristoyl-Phe-Ala-Arg-Lys-Gly-Ala-Leu-OH-trifluoracetate salt (Myristoyl-FARKGAL-OH; also: trifluoroacetate salt) [AIP-2]
cytokine secretion in keratinocytes (keratinocytes): effective in decreasing cytokine secretion

Myristoyl-Thru-Arg-Lys-Arg-Gln-Arg-Ala-Met-Arg-Arg-Arg-Val-His-Gln-Ile-Asn-Gly-OH (Myristoyl-TRKRQRAMRRRVHQING-OH; SMILES CCCCCCCCCCCCCC(=O)N[C@H](C(=O)N[C@@H](CCCNC(=N)N)C(=O)N[C@@H](CCCCN)C(=O)N[C@@H](CCCNC(=N)N)C(=O)N[C@@H](CCC(N)=O)C(=O)N[C@@H](CCCNC(=N)N)C(=O)N[C@@H](C)C(=O)N[C@@H](CCSC)C(=O)N[C@@H](CCCNC(=N)N)C(=O)N[C@@H](CCCNC(=N)N)C(=O)N[C@@H](CCCNC(=N)N)C(=O)N[C@H](C(=O)N[C@@H](Cc1c[nH]cn1)C(=O)N[C@@H](CCC(N)=O)C(=O)N[C@H](C(=O)N[C@@H](CC(N)=O)C(=O)NCC(=O)O)[C@@H](C)CC)C(C)C)[C@@H](C)O) [MPE-1]
The initial day (of illness signs) (EAE mice; 0.1 mg/kg): 11 days | EAE severity / score compared to control group (EAE mice; 0.1 mg/kg (0.1 μg/ml)): reduced EAE severity | Score on day 18 (EAE mice; 0.1 mg/kg): 2.857 | Score on day 29 (EAE mice; 0.1 mg/kg): 1.929 | Score on day 37 (EAE mice; 0.1 mg/kg): 1.429 | EAE score on the initial day (EAE mice; 0.1 mg/kg): 0.429 | The initial day (of illness signs) (EAE mice; 1 mg/kg): 10 days | Number of dead mice during 49 days (EAE mice; 1 mg/kg i.p. three times a week): 4 | Score on day 18 (EAE mice; 1 mg/kg): 3.071 | Score on day 29 (EAE mice; 1 mg/kg): 4.286 | Score on day 37 (EAE mice; 1 mg/kg): 4.286 | EAE score on the initial day (EAE mice; 1 mg/kg): 0.429 | average group score at the end of the experiment (day 42) (EAE mice; concentration of 0.1 μg/ml, control group score 2.86): 2.00

Palmitoyl-Phe-Ala-Arg-Lys-Gly-Ala-Leu-Arg-Gln-OH-acetate salt (Palmitoyl-FARKGALRQ-OH; also: acetate salt) [PPDY-1]
cytokine secretion in keratinocytes (keratinocytes): effective in decreasing cytokine secretion
